Laboratory results reported in ChEMBL document CHEMBL1158156, “Structure-based design, synthesis, and biological evaluation of 1,1-dioxoisothiazole and benzo[b]thiophene-1,1-dioxide derivatives as novel inhibitors of hepatitis C virus NS5B polymerase” (Bioorg Med Chem Lett, 2008).

Tests used:
[1] = Cytotoxicity against human Huh7/C24 cells after 72 hrs; format: cell-based, Huh-7
[2] = Metabolic stability in human liver microsomes assessed as half life
[3] = AUC at 24 hrs in cynomolgus monkey at 1 mg/kg, po administered as single dose; format: ADME, organism-based, Macaca fascicularis; design: time < 24 hr, dose 1 mg/kg, route oral; conditions: plasma
[4] = test system: Hepatitis C virus; assay: Antiviral activity against HCV 1b infected in human Huh7/C24 cells after 72 hrs by replicon assay; format: functional, organism-based, Hepacivirus hominis; conditions: genotype 1b, Huh-7, 72 h
[5] = Apparent permeability from apical to basolateral side in human Caco-2 cells; format: ADME, cell-based
[6] = Oral bioavailability in cynomolgus monkey at 1 mg/kg administered as single dose; format: ADME, organism-based, Macaca fascicularis; conditions: in vivo
[7] = Apparent permeability from basolateral to apical side in human Caco-2 cells; format: ADME, cell-based
[8] = Plasma concentration in cynomolgus monkey at 1 mg/kg, po administered as single dose after 12 hrs; format: ADME, organism-based, Macaca fascicularis; design: dose 1 mg/kg, route oral
[9] = Ratio of permeability from basolateral to apical over apical to basolateral side in human Caco-2 cells
[10] = test system: Hepatitis C virus; assay: Inhibition of HCV 1b NS5B polymerase; design: species or system Hepatitis C virus subtype 1b
[11] = Apparent permeability across human Caco-2 cells

SMILES: CN(Cc1cccc2c1S(=O)(=O)N=C2C1=C(O)[C@H](C(C)(C)C)N(Cc2ccc(F)c(Cl)c2)C1=O)S(C)(=O)=O
- CC50 at 72 h [1]: > 33 µM
- half-life ([2]; liver microsomes): > 1 h
- AUC at 24 h [3]: 193 ng·h/mL
- EC50 [4]: 0.09 µM
- Papp A→B [5]: 0.2 ×10⁻⁶ cm/s
- bioavailability [6]: 4%
- Papp B→A [7]: 29 ×10⁻⁶ cm/s
- concentration at 12 h [8]: 3.1 ng/mL
- efflux ratio [9]: 132
- IC50 [10]: 0.023 µM

SMILES: CCOc1cccc2c1S(=O)(=O)N=C2C1=C(O)[C@H](C(C)C)N(CCC(C)(C)C)C1=O
- CC50 at 72 h [1]: > 33 µM
- IC50 [10]: 9 µM

SMILES: CC(C)(C)[C@H]1C(O)=C(C2=NS(=O)(=O)c3c(OCC#N)cccc32)C(=O)N1Cc1ccc(F)c(Cl)c1
- CC50 at 72 h [1]: > 33 µM
- half-life ([2]; liver microsomes): > 1 h
- EC50 [4]: 0.7 µM
- IC50 [10]: 0.07 µM

SMILES: CC(C)(C)[C@H]1C(O)=C(C2=NS(=O)(=O)c3c(OCC(N)=O)cccc32)C(=O)N1Cc1ccc(F)c(Cl)c1
- CC50 at 72 h [1]: > 33 µM
- half-life ([2]; liver microsomes): > 1 h
- EC50 [4]: 7.9 µM
- IC50 [10]: 0.033 µM

SMILES: CN(Cc1cccc2c1S(=O)(=O)N=C2C1=C(O)C(C)(C)N(Cc2ccc(F)c(Cl)c2)C1=O)S(C)(=O)=O
- CC50 at 72 h [1]: > 33 µM
- half-life ([2]; liver microsomes): > 1 h
- IC50 [10]: 0.46 µM

SMILES: CC(C)[C@H]1C(O)=C(C2=NS(=O)(=O)c3c(OCC(=O)C(C)(C)C)cccc32)C(=O)N1Cc1ccccc1
- CC50 at 72 h [1]: > 33 µM
- EC50 [4]: > 33 µM
- IC50 [10]: 21 µM

SMILES: CC(C)(C)[C@H]1C(O)=C(C2=NS(=O)(=O)c3cc(NS(C)(=O)=O)ccc32)C(=O)N1Cc1ccc(F)c(Cl)c1
- CC50 at 72 h [1]: > 33 µM
- half-life ([2]; liver microsomes): > 1 h
- EC50 [4]: 13 µM
- IC50 [10]: 0.094 µM

SMILES: CN(Cc1cccc2c1S(=O)(=O)C=C2C1=C(O)[C@H](C(C)(C)C)N(CCC(C)(C)C)C1=O)S(C)(=O)=O
- CC50 at 72 h [1]: > 33 µM
- half-life ([2]; liver microsomes): > 1 h
- EC50 [4]: 5.8 µM
- IC50 [10]: 0.92 µM

SMILES: CCOc1cccc2c1S(=O)(=O)N=C2C1=C(O)[C@H](C(C)(C)C)N(CCC(C)(C)C)C1=O
- CC50 at 72 h [1]: > 33 µM
- half-life ([2]; liver microsomes): > 1 h
- IC50 [10]: 1.5 µM

SMILES: CC(C)[C@H]1C(O)=C(C2=NS(=O)(=O)c3c(O)cccc32)C(=O)N1Cc1ccccc1
- CC50 at 72 h [1]: > 33 µM
- half-life ([2]; liver microsomes): > 1 h
- EC50 [4]: 47 µM
- IC50 [10]: 0.47 µM

SMILES: CC(C)(C)CCN1C(=O)C(C2=NS(=O)(=O)c3c(CCS(C)(=O)=O)cccc32)=C(O)[C@@H]1C(C)(C)C
- CC50 at 72 h [1]: > 33 µM
- half-life ([2]; liver microsomes): > 1 h
- EC50 [4]: 2.6 µM
- IC50 [10]: 0.045 µM

SMILES: CS(=O)(=O)NCc1cccc2c1S(=O)(=O)N=C2C1=C(O)C2(CC2)N(Cc2ccc(F)c(Cl)c2)C1=O
- CC50 at 72 h [1]: > 33 µM
- half-life ([2]; microsomes): > 1 h
- EC50 [4]: > 33 µM
- IC50 [10]: 0.13 µM

SMILES: CC(C)(C)[C@H]1C(O)=C(C2=NS(=O)(=O)c3c(OCc4ncon4)cccc32)C(=O)N1Cc1ccc(F)c(Cl)c1
- CC50 at 72 h [1]: > 33 µM
- half-life ([2]; liver microsomes): > 1 h
- EC50 [4]: 1.8 µM
- IC50 [10]: 0.18 µM

SMILES: CC(C)[C@@]1(C)C(O)=C(C2=CS(=O)(=O)c3c(CN(C)S(C)(=O)=O)cccc32)C(=O)N1CCC(C)(C)C
- CC50 at 72 h [1]: > 33 µM
- half-life ([2]; liver microsomes): > 1 h
- IC50 [10]: 13 µM

SMILES: CCOc1cccc2c1S(=O)(=O)N=C2C1=C(O)[C@H](CC(C)C)N(CCC(C)(C)C)C1=O
- CC50 at 72 h [1]: > 33 µM
- IC50 [10]: 5.1 µM

SMILES: CC(C)(C)CCN1C(=O)C(C2=NS(=O)(=O)c3c(OCC(N)=O)cccc32)=C(O)[C@@H]1C(C)(C)C
- CC50 at 72 h [1]: > 33 µM
- half-life ([2]; liver microsomes): 0.8 h
- EC50 [4]: 11 µM
- IC50 [10]: 0.2 µM

SMILES: CC[C@@]1(C)C(O)=C(C2=NS(=O)(=O)c3c(CN(C)S(C)(=O)=O)cccc32)C(=O)N1Cc1ccc(F)c(Cl)c1
- CC50 at 72 h [1]: > 33 µM
- half-life ([2]; microsomes): > 1 h
- IC50 [10]: 0.41 µM

SMILES: CC(C)(C)CCN1C(=O)C(C2=CS(=O)(=O)c3c(CNS(C)(=O)=O)cccc32)=C(O)[C@@H]1C(C)(C)C
- CC50 at 72 h [1]: > 33 µM
- half-life ([2]; liver microsomes): > 1 h
- EC50 [4]: 6.4 µM
- IC50 [10]: 0.24 µM

SMILES: CCOc1cccc2c1S(=O)(=O)N=C2C1=C(O)[C@H](C(C)(C)C)N(CCC(C)C)C1=O
- CC50 at 72 h [1]: > 33 µM
- IC50 [10]: 5.1 µM

SMILES: CC(C)(C)CCN1C(=O)C(C2=NS(=O)(=O)c3c(OCc4ncon4)cccc32)=C(O)[C@@H]1C(C)(C)C
- CC50 at 72 h [1]: > 33 µM
- half-life ([2]; liver microsomes): 0.733 h
- EC50 [4]: 2 µM
- IC50 [10]: 0.65 µM

SMILES: CC(C)[C@H]1C(O)=C(C2=NS(=O)(=O)c3c(OCC(N)=O)cccc32)C(=O)N1Cc1ccccc1
- CC50 at 72 h [1]: > 33 µM
- half-life ([2]; liver microsomes): > 1 h
- EC50 [4]: 88 µM
- IC50 [10]: 0.52 µM

SMILES: CC(C)[C@H]1C(O)=C(C2=NS(=O)(=O)c3ccccc32)C(=O)N1Cc1ccccc1
- CC50 at 72 h [1]: > 33 µM
- half-life ([2]; liver microsomes): > 1 h
- EC50 [4]: 24 µM

SMILES: CCOc1cccc2c1S(=O)(=O)N=C2C1=C(O)[C@H](C2CCCCC2)N(CCC(C)(C)C)C1=O
- CC50 at 72 h [1]: > 33 µM
- IC50 [10]: 4 µM

SMILES: CC(C)[C@H]1C(O)=C(C2=NS(=O)(=O)c3c(OCC#N)cccc32)C(=O)N1Cc1ccccc1
- CC50 at 72 h [1]: > 33 µM
- half-life ([2]; liver microsomes): > 1 h
- EC50 [4]: 12 µM
- IC50 [10]: 1.6 µM

SMILES: CC(C)NCC(O)COc1cccc2ccccc12 (configuration not stated) [PROPRANOLOL]
- Papp [11]: 10 ×10⁻⁶ cm/s

SMILES: CCOc1cccc2c1S(=O)(=O)N=C2C1=C(O)[C@H](C(C)(C)C)N(Cc2cccc(Cl)c2)C1=O
- CC50 at 72 h [1]: > 33 µM
- IC50 [10]: 1.6 µM

SMILES: CCOc1cccc2c1S(=O)(=O)N=C2C1=C(O)[C@H](C(C)(C)C)N(Cc2ccc(F)c(Cl)c2)C1=O
- CC50 at 72 h [1]: > 33 µM
- half-life ([2]; microsomes): > 1 h
- IC50 [10]: 0.76 µM

SMILES: CC(C)(C)CCN1C(=O)C(C2=NS(=O)(=O)c3ccccc32)=C(O)[C@@H]1C(C)(C)C
- CC50 at 72 h [1]: > 33 µM
- half-life ([2]; liver microsomes): 0.167 h
- AUC at 24 h [3]: 4680 ng·h/mL
- EC50 [4]: 4.3 µM
- Papp A→B [5]: 9.9 ×10⁻⁶ cm/s
- Papp B→A [7]: 19 ×10⁻⁶ cm/s
- concentration at 12 h [8]: 5 ng/mL
- efflux ratio [9]: 2
- IC50 [10]: 0.42 µM

SMILES: CC(C)[C@H]1C(O)=C(C2=NS(=O)(=O)c3c(OCc4ncon4)cccc32)C(=O)N1Cc1ccccc1
- CC50 at 72 h [1]: > 33 µM
- half-life ([2]; liver microsomes): > 1 h
- EC50 [4]: 15 µM
- IC50 [10]: 0.35 µM

SMILES: CC(C)(C)CCN1C(=O)C(C2=NS(=O)(=O)c3c(CNS(C)(=O)=O)cccc32)=C(O)[C@@H]1C(C)(C)C
- CC50 at 72 h [1]: > 33 µM
- half-life ([2]; microsomes): > 1 h
- EC50 [4]: 0.35 µM
- IC50 [10]: 0.018 µM

SMILES: CC(C)(C)[C@H]1C(O)=C(C2=NS(=O)(=O)c3c(CNS(C)(=O)=O)cccc32)C(=O)N1Cc1ccc(F)c(Cl)c1
- CC50 at 72 h [1]: > 33 µM
- half-life ([2]; liver microsomes): > 1 h
- AUC at 24 h [3]: 38 ng·h/mL
- EC50 [4]: 0.07 µM
- Papp A→B [5]: 0.1 ×10⁻⁶ cm/s
- bioavailability [6]: 1%
- Papp B→A [7]: 15 ×10⁻⁶ cm/s
- concentration at 12 h [8]: 0.5 ng/mL
- efflux ratio [9]: 150
- IC50 [10]: < 0.01 µM

SMILES: CCOc1cccc2c1S(=O)(=O)N=C2C1=C(O)C(c2cccs2)N(CCC(C)(C)C)C1=O (racemic)
- CC50 at 72 h [1]: > 33 µM
- IC50 [10]: 2.9 µM

SMILES: CCOc1cccc2c1S(=O)(=O)N=C2C1=C(O)[C@H](C(C)C)N(Cc2ccccc2)C1=O
- CC50 at 72 h [1]: > 33 µM
- half-life ([2]; liver microsomes): > 1 h
- EC50 [4]: 18 µM
- IC50 [10]: 3.6 µM

SMILES: CC(C)[C@H]1C(O)=C(C2=NS(=O)(=O)c3c(OCCC(N)=O)cccc32)C(=O)N1Cc1ccccc1
- CC50 at 72 h [1]: > 33 µM
- EC50 [4]: 100 µM
- IC50 [10]: 1.2 µM

SMILES: CC(C)[C@H]1C(O)=C(C2=NS(=O)(=O)c3c(OCC(=O)N4CCOCC4)cccc32)C(=O)N1Cc1ccccc1
- CC50 at 72 h [1]: > 33 µM
- half-life ([2]; liver microsomes): > 1 h
- EC50 [4]: > 33 µM
- IC50 [10]: 3.2 µM

SMILES: CN(Cc1cccc2c1S(=O)(=O)N=C2C1=C(O)C2(CC2)N(Cc2ccc(F)c(Cl)c2)C1=O)S(C)(=O)=O
- CC50 at 72 h [1]: > 33 µM
- half-life ([2]; liver microsomes): > 1 h
- IC50 [10]: 0.62 µM
